{"source": "patent US20250135071A1", "about": "“USE OF POLYPEPTIDE IN PROMOTION OF CARTILAGE REGENERATION OR REPAIR” (HANGZHOU HUIBO SCIENCE AND TECHNOLOGY CO., LTD, priority 2021, published 2025)", "key": {"Aggrecan": {"system": "Aggrecan", "assay": "Immunohistochemistry of Aggrecan in repaired tissue", "type": "in vivo, New Zealand white rabbits", "experimental": "(§1) Histological examination steps were as follows: in an environment of 4° C., the specimens used for histological analysis were fixed in 10% neutral formalin (Sig-ma-Aldrich, USA) for 24 hours, and decalcified with a 10% ethylenediaminetetraacetic acid (EDTA) buffer solution (Sigma-Aldrich, USA) for 28 days. The sample was embedded in paraffin wax (Sigma-Aldrich, USA), cut into 4 μm thick sagittal sections, and subjected to staining with hemotoxylin and cosin, Masson trichrome and Alcian Blue (Sigma Aldrich, USA). The sections were detected immunohistochemically for the contents of the type II collagen and Aggrecan. […] These sections were scored blindly by 3 experienced pathologists with an improved O'Driscoll scoring system (MODS).\n(§2) The steps of histological morphology analysis were as follows: in all the sample sections, the original defect region was a 3*3 mm square. […] The percentages of areas of the new subchondral bone, the cartilage, the collagen fiber and the glycosaminoglycan (GAG) in the total area of the defect region was detected with image analysis software (image pro plus 6.0). Their respective contents were expressed as integrated optical density (IOD) of the type II collagen and Aggrecan measured by Image pro plus 6.0. […]"}, "[1]": {"system": "defect region of a critical size in rabbit condyle", "assay": "Effect of Hst1 dose in Gel-MA on cartilage repair (H&E histology)", "type": "in vivo", "conditions": "2 weeks", "excerpt": "In order to determine the optimal concentration of Hst1 for promoting osteochondral repair, Gel-M and 3 different doses of Hst1 at (A, A1) 50, (B, B1) 500, and (C, C1) 1,000 (μg)/sample were implanted in the defect region of a critical size in rabbit condyle, and the tissues were taken out at 2 weeks after operation, subjected to histological treatment and sectioned to explore the cartilage repair effects of the 3 different concentrations of Hst1.\nThe 3 different concentrations of Hst1 were set as follows: group A: 50 μg of Hst1+21.1 μl of a Gel-MA prepolymer solution; group B: 500 μg of Hst1+21.1 μl of a Gel-MA prepolymer solution; and group C: 1,000 μg of Hst1+21.1 μl of a Gel-MA prepolymer solution (the model volume of condylar defect was 21.1 μl/sample).\nThe optical photomicrographs of H&E stained tissue sections of rabbit condyle for comparison were shown in FIG. 8, wherein the dotted square area was the original defect region (3 mm*3 mm), the A-C scale was 500 μm; and the A1-C1 scale=50 μm. […] Therefore, 500 μg of Hst1/sample (500 μg of Hst1+21.1 μl of Gel-MA) was selected as the preferred concentration."}, "glycosaminoglycan (GAG)": {"system": "glycosaminoglycan (GAG)", "assay": "Alcian Blue staining, glycosaminoglycan (GAG) area in defect region", "type": "in vivo, New Zealand white rabbits", "conditions": "2 and 4 weeks; group 3 versus groups 2 and 1; P<0.05", "experimental": "as §1, §2"}, "type II collagen": {"system": "type II collagen", "assay": "Immunohistochemistry of type II collagen in repaired tissue", "type": "in vivo, New Zealand white rabbits", "experimental": "as §1, §2"}, "[2]": {"system": "rabbit temporomandibular joint condylar osteochondral defect (3 mm*3 mm)", "assay": "Histological evaluation (H&E, histomorphometry, MODS score) of repaired osteochondral defect", "type": "in vivo, New Zealand white rabbits", "conditions": "group 3", "experimental": "In this example, 3 groups of rabbits provided in Example 2 were used, and at 1, 2 and 4 weeks after operation, 6 animals in each group were randomly selected for euthanasia. The right temporomandibular joint and surrounding tissues thereof were taken out, and the gross specimens were analyzed for tissue morphology and statistically analyzed.\nHistological examination steps were as follows: in an environment of 4° C., the specimens used for histological analysis were fixed in 10% neutral formalin (Sig-ma-Aldrich, USA) for 24 hours, and decalcified with a 10% ethylenediaminetetraacetic acid (EDTA) buffer solution (Sigma-Aldrich, USA) for 28 days. The sample was embedded in paraffin wax (Sigma-Aldrich, USA), cut into 4 μm thick sagittal sections, and subjected to staining with hemotoxylin and cosin, Masson trichrome and Alcian Blue (Sigma Aldrich, USA). The sections were detected immunohistochemically for the contents of the type II collagen and Aggrecan. All the sections were observed and photographed by utilizing an optical microscope (CX51; Olympus) and a digital charge coupled device camera (TrueChrome Metrics; Tucsen Photonics). These sections were scored blindly by 3 experienced pathologists with an improved O'Driscoll scoring system (MODS).\nThe steps of histological morphology analysis were as follows: in all the sample sections, the original defect region was a 3*3 mm square. The top of the square was flush with the cartilage surfaces on both sides. The percentages of areas of the new subchondral bone, the cartilage, the collagen fiber and the glycosaminoglycan (GAG) in the total area of the defect region was detected with image analysis software (image pro plus 6.0). Their respective contents were expressed as integrated optical density (IOD) of the type II collagen and Aggrecan measured by Image pro plus 6.0.\nAt 4 weeks after operation, the tissues were retrieved for histological treatment and sectioning. According to the implants in the defect region, they were divided into a group 1 as the control group (A in FIG. 3, A1-A2), a group 2 as the Gel-MA group (B in FIG. 3, B1-B2) and a group 3 as the Hst1/Gel-MA group (C in FIG. 3, C1-C2). The dotted square area in FIG. 3 was the original defect region (3 mm*3 mm). A-C scale=500 μm. […]\nThe quantitative analysis of areas of new cartilage and subchondral bones and the MODS score results of repairing osteochondral defects at 1, 2 and 4 weeks after operation were shown in FIG. 4. In FIG. 4, A was the quantitative analysis of the area of the new cartilage, B was the quantitative analysis of the area of the subchondral bone, and C, D and E were the MODS score results of repairing osteochondral defects at 1, 2 and 4 weeks after operation, respectively. […]"}, "[3]": {"system": "rabbit temporomandibular joint condylar osteochondral defect (3 mm*3 mm)", "assay": "Macroscopic (ICRS) evaluation of repair of rabbit condylar osteochondral defect", "type": "in vivo, New Zealand white rabbits", "conditions": "overall conclusion, 1 to 4 weeks", "excerpt": "54 adult male New Zealand white rabbits (Zhejiang Chinese Medical University, IACUC-20180625-04) were randomized into 3 groups, with 18 rabbits in each group. The 54 rabbits were operated at right condyle, while the left condyle remained intact.\nThey were divided into 3 groups, of which group 1 was a control group without any treatment in the defect region; group 2 was a Gel-MA group implanted with Gel-MA hydrogel in the defect region; and group 3 was a Hst1/Gel-MA group implanted with HST1 functionalized Gel-MA in the defect region (provided in Example 1). […]\nAt 1, 2 and 4 weeks after operation, 6 animals in each group were randomly selected for euthanasia. The right temporomandibular joint and surrounding tissues thereof were taken out, and the gross specimens were evaluated by macroscopic scoring, and statistically analyzed.\nThe macroscopic scoring evaluation of the gross specimens adopted a macroscopic scoring system of the International Cartilage Repair Society (ICRS), and the gross appearance of the defect site was photographed and subjected to blind evaluation by 3 independent graders. The scoring system evaluated the cartilage repair in the defect region from four aspects: the degree of repair, the integration of a boundary area, a macroscopic appearance and the overall repair evaluation. […]"}, "collagen fibers": {"system": "collagen fibers", "assay": "Masson trichrome staining, collagen fiber area in defect region", "type": "in vivo, New Zealand white rabbits", "conditions": "2 and 4 weeks; group 3 versus groups 2 and 1; P<0.05", "experimental": "as §1, §2"}, "[4]": {"conditions": "4 weeks after operation, group 3"}, "[5]": {"conditions": "4 weeks, group 3, quantitative analysis (IOD)"}}, "data": [{"substance": "Histatin-1 polypeptide (DSHEKRHHGYRRKFHEKHHSHREFPFYGDYGSNYLYDN; linear Hst1)", "values": [{"measurement": "expression of Aggrecan in the new cartilage tissue", "setting": "Aggrecan; [4]", "value": "close to those in the normal cartilage tissue"}, {"measurement": "expression of Aggrecan compared with the groups 2 and 1", "setting": "Aggrecan; [5]", "value": "more significant"}, {"measurement": "histological repair of defect region", "setting": "[1]; group A: 50 μg of Hst1+21.1 μl Gel-MA prepolymer solution", "value": "no new tissue was generated, and only a small amount of cell infiltration was detected"}, {"measurement": "histological repair of defect region", "setting": "[1]; group B: 500 μg of Hst1+21.1 μl Gel-MA prepolymer solution", "value": "several new cartilage islands could be obviously observed"}, {"measurement": "histological repair of defect region", "setting": "[1]; group C: 1,000 μg of Hst1+21.1 μl Gel-MA prepolymer solution", "value": "a large number of new subchondral bones were generated, but almost no new cartilage tissue was detected"}, {"measurement": "area percentages of glycosaminoglycan (GAG) in the new cartilage and the subchondral bone in the total area of the defect region", "setting": "glycosaminoglycan (GAG)", "value": "significantly higher than those in the groups 2 and 1"}, {"measurement": "expression of the type II collagen in the new cartilage tissue", "setting": "type II collagen; [4]", "value": "close to those in the normal cartilage tissue"}, {"measurement": "expression of the type II collagen compared with the groups 2 and 1", "setting": "type II collagen; [5]", "value": "more significant"}, {"measurement": "histological observation of defect region", "setting": "[2]; 1 week after operation", "value": "a new tissue was observed in the pores of the undegraded scaffold"}, {"measurement": "histological observation of defect region", "setting": "[2]; 2 weeks after operation", "value": "new cartilage and bone tissues gradually grew, infiltrated and replaced the scaffold"}, {"measurement": "histological observation of defect region", "setting": "[2]; 4 weeks after operation", "value": "the new cartilage proliferated and migrated to the center site of the defect"}, {"measurement": "new blood vessels at junction between subchondral bone and functionalized hydrogel", "setting": "[2]; 4 weeks after operation", "value": "formation of new blood vessels could be detected"}, {"measurement": "effect on promoting the repair of cartilage injury (macroscopic)", "setting": "[3]", "value": "very significant effect on promoting the repair of cartilage injury"}, {"measurement": "area percentages of the collagen fibers in the new cartilage and the subchondral bone in the total area of the defect region", "setting": "collagen fibers", "value": "significantly higher than those in the groups 2 and 1"}]}]}
